Test: molar heat capacity at constant pressure
Settings: 101.33 kPa, Liquid

CCCCCCCCCl [1-chlorooctane]
Settings | molar heat capacity at constant pressure [J/K/mol]
284.15 K | 269.76
286.65 K | 270.79
289.15 K | 271.83
291.65 K | 272.66
294.15 K | 273.66
296.65 K | 274.53
299.15 K | 275.61
301.65 K | 276.52
304.15 K | 277.29
306.65 K | 278.37
309.15 K | 279.28
311.65 K | 280.5
314.15 K | 281.58
316.65 K | 282.47
319.15 K | 283.79
321.65 K | 284.92
324.15 K | 285.45
326.65 K | 286.81
329.15 K | 288.43
331.65 K | 289.95
334.15 K | 290.13
336.65 K | 291.34
339.15 K | 291.91
341.65 K | 293.56
344.15 K | 294.16
346.65 K | 294.82
349.15 K | 295.79
351.65 K | 297.21
353.15 K | 298.14

CCCCCCCBr [1-bromoheptane]
Settings | molar heat capacity at constant pressure [J/K/mol]
284.15 K | 244.73
286.65 K | 245.56
289.15 K | 246.44
291.65 K | 247.28
294.15 K | 248.12
296.65 K | 248.93
299.15 K | 249.7
301.65 K | 250.38
304.15 K | 251.56
306.65 K | 252.33
309.15 K | 253.19
311.65 K | 254.14
314.15 K | 255
316.65 K | 255.97
319.15 K | 256.84
321.65 K | 257.85
324.15 K | 258.76
326.65 K | 259.71
329.15 K | 260.68
331.65 K | 261.61
334.15 K | 262.5
336.65 K | 262.97
339.15 K | 264.64
341.65 K | 265.49
344.15 K | 266.52
346.65 K | 267.46
349.15 K | 268.47
351.65 K | 269.51
353.15 K | 270.03
